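GI50 = concentration required for 50% inhibition of growth. The concentration for full growth arrest is given as TGI.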
Columns and labels:
Assay in all cases: NCI tumour cell line growth inhibition, 384-well format
MCF7 breast = system: MCF7 breast
UACC-62 melanoma = system: UACC-62 melanoma
OVCAR-4 ovarian = system: OVCAR-4 ovarian
OVCAR-5 ovarian = system: OVCAR-5 ovarian
SK-MEL-2 melanoma = system: SK-MEL-2 melanoma
NCI-H226 lung = system: NCI-H226 lung
SF-295 CNS = system: SF-295 CNS
SK-OV-3 ovarian = system: SK-OV-3 ovarian
HOP-92 NSCLC = system: HOP-92 NSCLC
TK-10 renal = system: TK-10 renal
SNB-75 CNS = system: SNB-75 CNS
K-562 leukemia = system: K-562 leukemia
LOX IMVI melanoma = system: LOX IMVI melanoma

In the case of C[C@H](NC(=O)CCC(F)(F)F)C(=O)N[C@@H]1C(=O)N(CCO)c2ncccc2-c2ccccc21, the GI50 (MCF7 breast) is reported as over 100 µM, the TGI (MCF7 breast) is reported as over 100 µM and the GI50 (UACC-62 melanoma) is reported as over 100 µM. The TGI (UACC-62 melanoma) was over 100 µM, the GI50 (OVCAR-4 ovarian) was over 100 µM and the TGI (OVCAR-4 ovarian) was over 100 µM. It also gave a GI50 (OVCAR-5 ovarian) of over 100 µM, a TGI (OVCAR-5 ovarian) of over 100 µM and a GI50 (SK-MEL-2 melanoma) of over 100 µM. The TGI (SK-MEL-2 melanoma) was over 100 µM, the GI50 (NCI-H226 lung) was over 100 µM and the TGI (NCI-H226 lung) was over 100 µM. It also gave a GI50 (SF-295 CNS) of over 100 µM, a TGI (SF-295 CNS) of over 100 µM and a GI50 (SK-OV-3 ovarian) of over 100 µM. It also gave a TGI (SK-OV-3 ovarian) of over 100 µM, a GI50 (HOP-92 NSCLC) of over 100 µM and a TGI (HOP-92 NSCLC) of over 100 µM. For the same compound, the GI50 (TK-10 renal) was over 100 µM, the TGI (TK-10 renal) was over 100 µM and the GI50 (SNB-75 CNS) was over 100 µM. The TGI (SNB-75 CNS) was over 100 µM, the GI50 (K-562 leukemia) was 41.6 µM and the TGI (K-562 leukemia) was over 91.3 µM. For the same compound, the GI50 (LOX IMVI melanoma) was 43.3 µM and the TGI (LOX IMVI melanoma) was over 100 µM.
